From patent publication US20260132140A1, “IMIDAZOLYL-AMINO-PYRAZINE-CARBONITRILS AS CHK-1 INHIBITORS” (BenevolentAI Bio Limited, priority 2022, published 2026)
pIC50: −log10 of the molar value.

Columns and labels:
[1] = target: T1, human Chk1 kinase (Homo sapiens, UniProt O14757); assay: biochemical
T1 sequence (O14757 1-476): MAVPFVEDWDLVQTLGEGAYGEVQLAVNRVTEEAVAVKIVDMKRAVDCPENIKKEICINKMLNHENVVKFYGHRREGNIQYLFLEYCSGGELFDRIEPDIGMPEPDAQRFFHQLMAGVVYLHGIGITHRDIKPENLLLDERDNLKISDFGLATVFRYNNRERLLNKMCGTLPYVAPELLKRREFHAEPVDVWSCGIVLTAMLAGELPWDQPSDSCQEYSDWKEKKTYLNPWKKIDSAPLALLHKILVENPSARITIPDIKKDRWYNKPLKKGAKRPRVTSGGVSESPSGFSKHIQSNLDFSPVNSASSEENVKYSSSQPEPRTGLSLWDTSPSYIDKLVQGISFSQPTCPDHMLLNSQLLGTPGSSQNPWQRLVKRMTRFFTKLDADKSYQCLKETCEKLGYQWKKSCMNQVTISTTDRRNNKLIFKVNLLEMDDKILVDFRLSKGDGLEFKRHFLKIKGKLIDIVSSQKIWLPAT

[2] = target: human Chk2 kinase (Homo sapiens, UniProt O96017); assay: biochemical
Chain of human Chk2 kinase (O96017 whole entry): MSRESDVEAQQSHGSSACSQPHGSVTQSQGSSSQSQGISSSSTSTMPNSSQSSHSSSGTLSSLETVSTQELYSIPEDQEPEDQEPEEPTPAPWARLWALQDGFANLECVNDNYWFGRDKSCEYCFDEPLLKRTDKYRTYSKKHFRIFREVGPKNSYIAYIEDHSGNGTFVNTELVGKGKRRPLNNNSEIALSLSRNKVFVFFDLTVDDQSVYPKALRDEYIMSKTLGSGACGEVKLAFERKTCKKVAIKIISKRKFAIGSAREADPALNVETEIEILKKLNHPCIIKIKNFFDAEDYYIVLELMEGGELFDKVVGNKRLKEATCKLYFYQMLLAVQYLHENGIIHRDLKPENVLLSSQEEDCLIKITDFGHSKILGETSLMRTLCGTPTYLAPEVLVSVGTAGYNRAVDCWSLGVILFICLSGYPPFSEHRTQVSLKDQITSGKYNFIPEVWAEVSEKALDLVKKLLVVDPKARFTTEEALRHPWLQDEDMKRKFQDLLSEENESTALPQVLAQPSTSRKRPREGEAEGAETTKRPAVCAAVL

CN1CCC12CCN(c1ccc(-n3cnc(Nc4cnc(C#N)cn4)c3)cc1)CC2 [Example 100, 5-((1-(4-(1-Methyl-1,7-diazaspiro[3.5]nonan-7-yl)phenyl)-1H-imidazol-4-yl)amino)pyrazine-2-carbonitrile]
pIC50 [1]: 7.50 to 8.00 | pIC50 [2]: 4.00 to 5.00

Cc1cc(CN2CC[C@@H](F)C2)cc(C)c1-n1cnc(Nc2cnc(C#N)cn2)c1 [Example 57, (R)-5-((1-(4-((3-Fluoropyrrolidin-1-yl)methyl)-2,6-dimethylphenyl)-1H-imidazol-4-yl)amino)pyrazine-2-carbonitrile]
pIC50 [1]: 6.00 to 6.50 | pIC50 [2]: < 4.00

CN1CC2(CC(Oc3ccc(-n4cnc(Nc5cnc(C#N)cn5)c4)cc3)C2)C1 [Example 178, 5-((1-(4-((2-Methyl-2-azaspiro[3.3]heptan-6-yl)oxy)phenyl)-1H-imidazol-4-yl)amino)pyrazine-2-carbonitrile]
pIC50 [1]: 7.00 to 7.50 | pIC50 [2]: 4.00 to 5.00

CN(C)C1CCCN(c2cccc(-n3cnc(Nc4cnc(C#N)cn4)c3)c2)C1 (single isomer, unassigned) [Example 111, 5-((1-(3-(3-(Dimethylamino)piperidin-1-yl)phenyl)-1H-imidazol-4-yl)amino)pyrazine-2-carbonitrile]
pIC50 [1]: 7.00 to 7.50 | pIC50 [2]: 4.00 to 5.00

CN1CCC(Nc2ccc(-n3cnc(Nc4cnc(C#N)cn4)c3)cc2)CC1 [Example 26, 5-((1-(4-((1-Methylpiperidin-4-yl)amino)phenyl)-1H-imidazol-4-yl)amino)pyrazine-2-carbonitrile]
pIC50 [1]: 7.50 to 8.00 | pIC50 [2]: 4.00 to 5.00

CN(C)[C@@H]1CCN(c2cnc(-n3cnc(Nc4cnc(C#N)cn4)c3)nc2)C1 [Example 82, (R)-5-((1-(5-(3-(Dimethylamino)pyrrolidin-1-yl)pyrimidin-2-yl)-1H-imidazol-4-yl)amino)pyrazine-2-carbonitrile]
pIC50 [1]: 7.00 to 7.50 | pIC50 [2]: 5.00 to 6.00

N#Cc1cnc(Nc2cn(-c3ccc(N4C[C@H]5CN[C@H]5C4)cc3)cn2)cn1 [Example 161, 5-((1-(4-((1R,5R)-3,6-Diazabicyclo[3.2.0]heptan-3-yl)phenyl)-1H-imidazol-4-yl)amino)pyrazine-2-carbonitrile]
pIC50 [1]: 7.50 to 8.00 | pIC50 [2]: 5.00 to 6.00

Cc1cc(-n2cnc(Nc3cnc(C#N)cn3)c2)ccc1N1CCN(C)CC1 [Example 28, 5-((1-(3-Methyl-4-(4-methylpiperazin-1-yl)phenyl)-1H-imidazol-4-yl)amino)pyrazine-2-carbonitrile]
pIC50 [1]: 7.50 to 8.00 | pIC50 [2]: 4.00 to 5.00

CN1CC2(CCN2c2ccc(-n3cnc(Nc4cnc(C#N)cn4)c3)cc2)C1 [Example 99, 5-((1-(4-(6-Methyl-1,6-diazaspiro[3.3]heptan-1-yl)phenyl)-1H-imidazol-4-yl)amino)pyrazine-2-carbonitrile]
pIC50 [1]: 7.50 to 8.00 | pIC50 [2]: 4.00 to 5.00

CN1C[C@@H](F)[C@@H](OCc2ccc(-n3cnc(Nc4cnc(C#N)cn4)c3)cc2)C1 [Example 146, 5-((1-(4-((((3S,4R)-4-fluoro-1-Methylpyrrolidin-3-yl)oxy)methyl)phenyl)-1H-imidazol-4-yl)amino)pyrazine-2-carbonitrile]
pIC50 [1]: 7.00 to 7.50 | pIC50 [2]: 4.00 to 5.00

N#Cc1cnc(Nc2cn(-c3ccc(N4CC[C@@H](N5CCC5)C4)cn3)cn2)cn1 [Example 102, (R)-5-((1-(5-(3-(Azetidin-1-yl)pyrrolidin-1-yl)pyridin-2-yl)-1H-imidazol-4-yl)amino)pyrazine-2-carbonitrile]
pIC50 [1]: 7.50 to 8.00 | pIC50 [2]: 5.00 to 6.00

COc1cc(N2C[C@H]3CCN(C)[C@H]3C2)ccc1-n1cnc(Nc2cnc(C#N)cn2)c1 [Example 55, 5-((1-(2-Methoxy-4-((3aR,6aR)-1-methylhexahydropyrrolo[3,4-b]pyrrol-5(1H)-yl)phenyl)-1H-imidazol-4-yl)amino)pyrazine-2-carbonitrile]
pIC50 [1]: 7.50 to 8.00 | pIC50 [2]: 4.00 to 5.00

Cc1cc(CN2CC[C@@H](F)C2)cc(C(F)(F)F)c1-n1cnc(Nc2cnc(C#N)cn2)c1 [Example 54, (R)-5-((1-(4-((3-Fluoropyrrolidin-1-yl)methyl)-2-methyl-6-(trifluoromethyl)phenyl)-1H-imidazol-4-yl)amino)pyrazine-2-carbonitrile]
pIC50 [1]: 6.50 to 7.00 | pIC50 [2]: < 4.00

CN(C)C1CCCN(c2ccc(-n3cnc(Nc4cnc(C#N)cn4)c3)cc2)C1 (single isomer, unassigned) [Example 122, 5-((1-(4-(3-(Dimethylamino)piperidin-1-yl)phenyl)-1H-imidazol-4-yl)amino)pyrazine-2-carbonitrile]
pIC50 [1]: 7.50 to 8.00 | pIC50 [2]: 4.00 to 5.00

N#Cc1cnc(Nc2cn(-c3cccc(N4CCC(N)C(F)(F)C4)c3)cn2)cn1 (single isomer, unassigned) [Example 166, 5-((1-(3-(4-Amino-3,3-difluoropiperidin-1-yl)phenyl)-1H-imidazol-4-yl)amino)pyrazine-2-carbonitrile]
pIC50 [1]: 7.00 to 7.50 | pIC50 [2]: < 4.00

CN1C[C@H]2CN(c3ccc(-n4cnc(Nc5cnc(C#N)cn5)c4)c(F)c3)[C@H]2C1 [Example 81, 5-((1-(2-Fluoro-4-((1S,5R)-3-methyl-3,6-diazabicyclo[3.2.0]heptan-6-yl)phenyl)-1H-imidazol-4-yl)amino)pyrazine-2-carbonitrile]
pIC50 [1]: 7.00 to 7.50 | pIC50 [2]: 5.00 to 6.00

CCN[C@@H]1CCN(c2ccc(-n3cnc(Nc4cnc(C#N)cn4)c3)cc2)C1 [Example 162, (R)-5-((1-(4-(3-(Ethylamino)pyrrolidin-1-yl)phenyl)-1H-imidazol-4-yl)amino)pyrazine-2-carbonitrile]
pIC50 [1]: > 8.00 | pIC50 [2]: 5.00 to 6.00

CN(CCO)C1CCN(c2cccc(-n3cnc(Nc4cnc(C#N)cn4)c3)c2)C1 (single isomer, unassigned) [Example 109, 5-((1-(3-(3-((2-Hydroxyethyl)(methyl)amino)pyrrolidin-1-yl)phenyl)-1H-imidazol-4-yl)amino)pyrazine-2-carbonitrile]
pIC50 [1]: 7.50 to 8.00 | pIC50 [2]: < 4.00

CN1C[C@H](OCc2ccc(-n3cnc(Nc4cnc(C#N)cn4)c3)cc2)[C@@H](F)C1 [Example 24, 5-((1-(4-((((3S,4S)-4-Fluoro-1-methylpyrrolidin-3-yl)oxy)methyl)phenyl)-1H-imidazol-4-yl)amino)pyrazine-2-carbonitrile]
pIC50 [1]: 7.00 to 7.50 | pIC50 [2]: < 4.00

CN1CCN(c2ccc(-n3cnc(Nc4cnc(C#N)cn4)c3)cn2)CC1 [Example 19, 5-((1-(6-(4-Methylpiperazin-1-yl)pyridin-3-yl)-1H-imidazol-4-yl)amino)pyrazine-2-carbonitrile]
pIC50 [1]: 6.50 to 7.00 | pIC50 [2]: 4.00 to 5.00

CN1C[C@@H]2CN(c3ccc(-n4cnc(Nc5cnc(C#N)cn5)c4)cc3)C[C@@H]2C1 [Example 101, 5-((1-(4-((3aR,6aS)-5-Methylhexahydropyrrolo[3,4-c]pyrrol-2(1H)-yl)phenyl)-1H-imidazol-4-yl)amino)pyrazine-2-carbonitrile]
pIC50 [1]: > 8.00 | pIC50 [2]: 4.00 to 5.00

CC(C)(C)N1CC(Oc2ccc(-n3cnc(Nc4cnc(C#N)cn4)c3)cc2)C1 [Example 45, 5-((1-(4-((1-(tert-Butyl)azetidin-3-yl)oxy)phenyl)-1H-imidazol-4-yl)amino)pyrazine-2-carbonitrile]
pIC50 [1]: 7.50 to 8.00 | pIC50 [2]: 4.00 to 5.00

COc1cc(N(C)CC2CCN(C)CC2)ccc1-n1cnc(Nc2cnc(C#N)cn2)c1 [Example 36, 5-((1-(2-Methoxy-4-(methyl((1-methylpiperidin-4-yl)methyl)amino)phenyl)-1H-imidazol-4-yl)amino)pyrazine-2-carbonitrile]
pIC50 [1]: 7.00 to 7.50 | pIC50 [2]: 4.00 to 5.00
